Source: patent US8293231B2, “Methods and compositions for treating ischemia” (Blue Blood Biotech Corp., priority 2005, dated 2012)

Tests used:
[1] = system: MMP-1, MMP-2, MMP-3, and MMP-9 in HUVEC conditioned medium; experiment: Gelatin and casein zymographies; assay type: cell-based, human; conditions: 10 mM EDTA in incubation buffer
Protocol: (§1) HUVECs were seeded at 80% confluence on 100-mm dishes in M199 medium. After 24 h, cells were rinsed with serum-free M199 twice and incubated in serum-free M199 with various concentrations of TMD23, VEGF (10 ng/mL), or PMA (70 ng/mL) for 12 h. The conditioned medium containing […] secreted proteins was analyzed by gelatin- and casein-based zymographies. The digested area appeared clear on a blue background, indicating the location of matrix metalloproteinase (MMP) activity. To further verify MMP caseinolytic activity, the casein-containing gel was incubated with incubation buffer containing 10 mM EDTA, an inhibitor of MMPs, to observe disappearance of the clear band. Plasminogen activator inhibitor (PAI) activity was measured by titrating samples with increasing amounts of tissue-type plasminogen activator (t-PA) (Boehringer Ingelheim) into a fixed volume of endothelial-cell-conditioned media.
as §1, with “zymographies. Lee O H, et al., Identification of angiogenic properties of insulin-like growth factor II in in vitro angiogenesis models. Brit J. Cancer. 2000; 82:385-391.” for “zymographies.”, “media. Shi G Y., et al., Plasmin and the regulation of tissue-type plasminogen activator biosynthesis in human endothelial cells. […]” for “media.”

HUVECs [2] = experiment: In vitro Matrigel angiogenesis assay (tube formation); assay type: cell-based, human; conditions: for Effect on the stimulatory effect of TMD23 on HUVEC tube formation: IgG 10 μg/mL, inhibitors 10 μM
Protocol: (§2) Growth-factor-reduced Matrigel (BD Biosciences) was thawed at 4° C. A total of 200 μL Matrigel was added to wells of a 48-well plate and polymerized 30 min at 37° C. Two hundred μL cell suspension containing various concentrations of VEGF, TMD23, or TMD23 in the presence of polyclonal rabbit anti-TMD23 antibody (10 μg/mL) or various signaling pathway inhibitors were plated onto Matrigel-coated wells at a density of 2.4×10^4 cells/well in M199 containing 10% FBS for 24 h at 37° C. in a 5% CO2 humidified atmosphere. Each concentration was tested in triplicate in the same plate, with wells photographed using a Leica camera (40× magnification). Tube length was quantified by measuring tubes in five randomly chosen fields from each well using MetaMorph software. Experiments were repeated at least three times.
as §2, with “5° k” for “5%”

[3] = system: PAI activity in conditioned media of HUVECs; experiment: Plasminogen activator inhibitor (PAI) activity assay; assay type: cell-based, human; conditions: 12 h; 100 or 1000 ng/mL TMD23, 70 ng/mL PMA, 10 ng/mL VEGF
Protocol: as §1
as §1, with “zymographies. Lee O H, et al., Identification of angiogenic properties of insulin-like growth factor II in in vitro angiogenesis models. Brit J. Cancer. 2000; 82:385-391.” for “zymographies.”, “media. Shi G Y., et al., Plasmin and the regulation of tissue-type plasminogen activator biosynthesis in human endothelial cells. […]” for “media.”

HUVECs [4] = experiment: Chemotaxis assay (Transwell); assay type: cell-based, human; conditions: inhibitor or antibody present with TMD23
Protocol: (§3) The chemotactic motility of HUVECs was assayed using Transwell (Costar) with 6.5-mm diameter polycarbonate filters (8-μm pore size). The lower filter surface was coated with 10 μg gelatin (Sigma-Aldrich). Various concentrations of TMD23 in the absence or presence of 10 μg/mL polyclonal rabbit anti-TMD23 antibody or 10 ng/mL vascular endothelial growth factor (VEGF) (R & D Systems, Inc.) in M199 were placed in the lower wells. One hundred mL cell suspension containing 1×10^5 cells was loaded into each of upper well. The chamber was incubated at 37° C. for 4 h. Cells were fixed with methanol and stained with 4′,6′-diamidino-2-phenylindole (DAPI). Chemotaxis was quantified with optical microscopy (Leica) at 100× magnification using MetaMorph imaging software (Universal Imaging Corporation) by counting the cells that migrated to the filter's lower side. Five random fields in each well were counted. Each sample was assayed in triplicate, and assays were repeated three times. To determine the role of extracellular signal-regulated kinase 1/2 (ERK1/2), p38 mitogen-activated protein kinase (MAPK), and phosphatidylinositol 3-kinase (PI3 kinase)-protein kinase B/Akt (Akt) in TMD23-mediated cell migration, assays were performed in the presence of U0126, a MAPK/ERK kinase (MEK) inhibitor, SB 203580, a p38 MAPK inhibitor, and LY 294002, a PI3 kinase inhibitor. Cell viability as determined by trypan blue staining was not altered by treatment. 00126 was purchased from Promega, with SB 203580 and LY 294002 from Calbiochem.
as §3, with “hundred μL” for “hundred mL”, “MAPK/ERK kinase-(MEK)” for “MAPK/ERK kinase (MEK)”, “treatment. U0126” for “treatment. 00126”

[5] = system: human umbilical vein endothelial cells (HUVECs); experiment: Cell proliferation assay (BrdU incorporation); assay type: cell-based; conditions: BrdU incorporation, FIG. 2A
Protocol: (§4) To evaluate the effect of TMD proteins on DNA synthesis in human umbilical vein endothelial cells (HUVECs), we performed a 5-bromo-2′-deoxyuridine (BrdU) incorporation assay with a commercial quantification kit (Roche Diagnostic GmbH) and manufacturer's protocol. Mitogenic effects induced by TMD proteins were also determined in the presence of polyclonal rabbit anti-TMD23 antibody (prepared by GlycoNex, Inc., Taiwan) that was purified by protein G-Sepharose column (Amersham Pharmacia Biotech AB).
as §4, with “(HUVECs),” for “(HUVECs), we performed”, “assay were performed” for “assay”

[6] = system: Matrigel plugs in FVB mice; experiment: Murine angiogenesis assay (Matrigel plug); assay type: in vivo
[7] = system: human melanoma A2058 cells in Matrigel; experiment: Effect of TMD23 on tumor neoangiogenesis; assay type: in vivo, athymic nude mice; conditions: 18 days
Protocol: To assess TMD23 effects on tumor neoangiogenesis, 1×10^6 human melanoma A2058 cells (ATCC® CRL-11147) were mixed with Matrigel (0.5 mL) containing heparin (60 U/mL) and various concentrations of TMD23 and subcutaneously injected into athymic nude mice. Matrigel plugs were harvested after 18 days and frozen in liquid nitrogen. Blood vessels were detected by immunohistochemistry using anti-CD31 antibody as described above. Microvessel density (MVD) was calculated by counting six highly vascularized fields in each section (200× magnification; MetaMorph software).

[8] = system: Matrigel plugs in FVB mice; experiment: Murine angiogenesis assay (Matrigel plug); assay type: in vivo; conditions: for Appearance of Matrigel plugs, with heparin: day 4, plus heparin (30 U), TMD23 10, 100, or 1,000 ng, bFGF 250 ng, VEGF 50 ng; for Magnitude of angiogenic reaction with heparin versus without: gels supplemented with both angiogenic factor and heparin
Protocol: To assess angiogenic effects in vivo, growth-factor-reduced liquid Matrigel (0.5 mL) containing heparin (60 U/mL) and various concentrations of TMD23, bFGF or VEGF was subcutaneously injected into FVB mice near the abdominal midline. Matrigel with PBS plus heparin served as the negative control, with bFGF and VEGF plus heparin as the positive control. Four days after injection, mice were sacrificed and Matrigel plugs were surgically removed. For macroscopic analysis of angiogenesis, hemoglobin content in Matrigel was measured using Drabkin reagent 525 (Sigma-Aldrich). For histological analysis, rat anti-mouse CD31 (PECAM-1, platelet endothelial cell adhesion molecule-1) antibody (Pharmingen) was used. The same specimens were used for hematoxylin and eosin (H&E) staining.

## O=C(O)CN(CCN(CC(=O)O)CC(=O)O)CC(=O)O [EDTA, reference compound]
[1]
  Effect on the caseinolytic MMP-3 band: blocked specifically

## COC(=O)[C@@H](N)CCCNC(=N)N[N+](=O)[O-] [L-NAME, N^G-nitro-L-arginine methyl ester]
HUVECs [2]
  Effect on the stimulatory effect of TMD23 on HUVEC tube formation: blocked

## CCCCCCCCCCCCCC(=O)O[C@@H]1[C@@H](C)[C@@]2(O)[C@@H](C=C(CO)C[C@]3(O)C(=O)C(C)=C[C@@H]23)[C@@H]2C(C)(C)[C@]12OC(C)=O [PMA]
[3]
  PAI activity in conditioned media of HUVECs: decreased significantly

## C[S+]([O-])c1ccc(-c2nc(-c3ccncc3)c(-c3ccc(F)cc3)[nH]2)cc1 (stereo not shown) [SB 203580, reference compound]
HUVECs [2]
  Effect on the stimulatory effect of TMD23 on HUVEC tube formation: blocked
HUVECs [4]
  Effect on the stimulatory effect of TMD23 on HUVEC migration: blocked

## N#CC(=C(/N)Sc1ccccc1N)/C(C#N)=C(\N)Sc1ccccc1N [U0126, reference compound]
HUVECs [2]
  Effect on the stimulatory effect of TMD23 on HUVEC tube formation: blocked
HUVECs [4]
  Effect on the stimulatory effect of TMD23 on HUVEC migration: blocked

## TMD2: Recombinant human thrombomodulin fragment, amino acids Ala242-Cys480 of SEQ ID NO: 2, containing six EGF-like structures (D2)
[5]
  DNA synthesis in HUVECs: stimulated DNA synthesis

## basic fibroblast growth factor [bFGF, reference compound]
[6]
  Appearance of Matrigel plugs, without heparin: pale
[7]
  Blood vessels in Matrigel plugs (CD31 staining): significantly more blood vessels
[7]; compared with A2058 cells alone
  Tumor size developed by Matrigel plugs containing A2058 cells: bigger
[8]
  Appearance of Matrigel plugs, with heparin: bright red
  Magnitude of angiogenic reaction with heparin versus without: considerably greater

## vascular endothelial growth factor [VEGF, reference compound]
[6]
  Appearance of Matrigel plugs, without heparin: pale
[3]
  PAI activity in conditioned media of HUVECs: decreased significantly
[8]
  Appearance of Matrigel plugs, with heparin: bright red
  Magnitude of angiogenic reaction with heparin versus without: considerably greater
[8]; plus heparin, compared with controls
  Hemoglobin content of recovered Matrigel plugs: significantly increased
HUVECs [2]; 24 h, VEGF 10 ng/mL, TMD23 5 to 250 ng/mL
  HUVEC tube formation on Matrigel: formed elongated capillary-like structures, with complete networks
